Assay results as given in ChEMBL document CHEMBL5120867, “Hernandezine Regulates Proliferation and Autophagy-Induced Apoptosis in Melanoma Cells” (J Nat Prod, 2022).
Calls of active or inactive are those of the source. The calls are words filed in the database; no cut-off is given here.

Assays:
A-375 [1] = test: Induction of cell cycle arrest in human A-375 cells assessed as accumulation at G0/G1 phase at 6 uM incubated for 24 hrs by PI staining based flow cytometry analysis (reference value: 69.68 %); format: functional
NCI-H1299 = test: Cytotoxicity against human NCI-H1299 cells assessed as reduction in cell viability by MTT assay; format: functional, cell-based
A-375 [2] = test: Induction of apoptosis in human A-375 cells assessed as early apoptotic cells preincubated for 2 hrs with 3-MA followed by compound addition and measured after 24 hrs by Annexin-V-FITC/PI-staining based flow cytometry (reference value: 3.1 %); format: functional
B16 [3] = test: Cytotoxicity against mouse B16 cells assessed as reduction in cell viability incubated for 24 hrs by MTT assay; format: functional, cell-based; settings: B16, 24 h
B16 [4] = test: Induction of cell cycle arrest in mouse B16 cells assessed as accumulation at G2/M phase at 7 uM incubated for 24 hrs by PI staining based flow cytometry analysis (reference value: 4.70 %); format: functional
B16 [5] = test: Induction of cell cycle arrest in mouse B16 cells assessed as accumulation at G2/M phase at 6 uM incubated for 24 hrs by PI staining based flow cytometry analysis (reference value: 4.70 %); format: functional
B16 [6] = test: Induction of cell cycle arrest in mouse B16 cells assessed as accumulation at G0/G1 phase at 5 uM incubated for 24 hrs by PI staining based flow cytometry analysis (reference value: 61.83 %); format: functional
A-375 [7] = test: Induction of apoptosis in human A-375 cells assessed as late apoptotic cells preincubated for 2 hrs with […] followed by compound addition and measured after 24 hrs by Annexin-V-FITC/PI-staining based flow cytometry (reference value: 5.7 %); format: functional
A-375 [8] = test: Induction of autophagy in human A-375 cells assessed as increase in phosphorylated ACC at 7 uM incubated for 6 to 24 hrs by Western blotting analysis; format: functional, cell-based; settings: time 6-24 hrs
A-375 [9] = test: Induction of autophagy in human A-375 cells assessed as increase in phosphorylated AMPK at 7 uM incubated for 6 to 24 hrs by Western blotting analysis; format: functional, cell-based; settings: time 6-24 hrs
B16 [10] = test: Induction of cell cycle arrest in mouse B16 cells assessed as accumulation at S phase at 7 uM incubated for 24 hrs by PI staining based flow cytometry analysis (reference value: 33.46 %); format: functional
A-375 [11] = test: Induction of apoptosis in human A-375 cells assessed as early apoptotic cells at 7 uM after 24 hrs by Annexin-V-FITC/PI-staining based flow cytometry (reference value: 1.4 %); format: functional
B16 [12] = test: Induction of apoptosis in mouse B16 cells assessed as late apoptotic cells at 6 uM measured after 24 hrs by Annexin-V-FITC/PI-staining based flow cytometry (reference value: 4.4 %); format: functional
A-375 [13] = test: Upregulation of p27 accumulation in human A-375 cells at 6 to 8 uM measured after 12 to 24 hrs by western blot assay; format: functional, cell-based; settings: dose 6-8 µM, time 12-24 hrs
A-375 [14] = test: Induction of autophagy in human A-375 cells assessed as decrease in LC3-I /LC3-II ratio at 7 uM incubated for 6 to 24 hrs by […]; format: functional, cell-based; settings: time 6-24 hrs
B16 [15] = test: Induction of apoptosis in mouse B16 cells assessed as early apoptotic cells at 6 uM measured after 24 hrs by Annexin-V-FITC/PI-staining based flow cytometry (reference value: 0.5 %); format: functional
A-375 [16] = test: Induction of autophagy in human A-375 cells assessed as increase in autophagosome with central pulp at 7 uM incubated for 6 to 24 hrs by transmission electron microscopy; format: functional, cell-based; settings: time 6-24 hrs
A-375 [17] = test: Cytotoxicity against human A-375 cells assessed as change in cell morphology with loss of […] contacts at 6 to 8 uM incubated for 24 hrs by […] phase contrast microscope analysis; format: functional; settings: dose 6-8 µM
B16 [18] = test: Induction of apoptosis in mouse B16 cells assessed as early apoptotic cells at 5 uM measured after 24 hrs by Annexin-V-FITC/PI-staining based flow cytometry (reference value: 0.5 %); format: functional
B16 [19] = test: Inhibition of colony formation in mouse B16 cells assessed as reduction in volume of colonies at 5 to 7 uM incubated for 24 hrs followed by replacement with fresh medium and measured after 14 days by crystal violet staining based analysis; format: functional, cell-based; settings: dose 5-7 µM
B16 [20] = test: Induction of cell cycle arrest in mouse B16 cells assessed as accumulation at S phase at 6 uM incubated for 24 hrs by PI staining based flow cytometry analysis (reference value: 33.46 %); format: functional
B16 [21] = test: Induction of cell cycle arrest in mouse B16 cells assessed as accumulation at G2/M phase incubated for 24 hrs in presence of AG490 by PI staining based flow cytometry analysis (reference value: 0.88 %); format: functional
B16 [22] = test: Induction of apoptosis in mouse B16 cells assessed as early apoptotic cells preincubated for 2 hrs with 3-MA followed by compound addition and measured after 24 hrs by Annexin-V-FITC/PI-staining based flow cytometry (reference value: 0.9 %); format: functional
A-375 [23] = test: Induction of cell cycle arrest in human A-375 cells assessed as accumulation at G0/G1 phase incubated for 24 hrs in presence of AG490 by PI staining based flow cytometry analysis (reference value: 56.69 %); format: functional
B16 [24] = test: Cytotoxicity against mouse B16 cells assessed as change in cell morphology with loss of intercellular contacts at 5 to 7 uM incubated for 24 hrs by phase contrast microscope analysis; format: functional, cell-based; settings: dose 5-7 µM
A-375 [25] = test: Induction of apoptosis in human A-375 cells assessed as increase in cleaved caspase 3 expression at 6 to 8 uM incubated for 24 hrs by Western blot analysis; format: functional, cell-based; settings: dose 6-8 µM
B16 [26] = test: Induction of cell cycle arrest in mouse B16 cells assessed as accumulation at G0/G1 phase at 6 uM incubated for 24 hrs by PI staining based flow cytometry analysis (reference value: 61.83 %); format: functional
A-375 [27] = test: Induction of apoptosis in human A-375 cells assessed as increase in cleaved caspase 9 expression at 6 to 8 uM incubated for 24 hrs by Western blot analysis; format: functional, cell-based; settings: dose 6-8 µM
A-375 [28] = test: Cytotoxicity against human A-375 cells assessed as decrease in number of adherent cells at 6 to 8 uM incubated for 24 hrs by […] phase contrast microscope analysis; format: functional, cell-based; settings: dose 6-8 µM
A-375 [29] = test: Induction of apoptosis in human A-375 cells assessed as late apoptotic cells at 8 uM after 24 hrs by Annexin-V-FITC/PI-staining based flow cytometry (reference value: 5.7 %); format: functional
A-375 [30] = test: Induction of autophagy in human A-375 cells assessed as decrease in phosphorylated p70S6K level at 7 uM incubated for 6 to 24 hrs by Western blotting analysis; format: functional, cell-based; settings: time 6-24 hrs
A-375 [31] = test: Induction of cell cycle arrest in human A-375 cells assessed as accumulation at G2/M phase incubated for 24 hrs by PI staining based flow cytometry analysis (reference value: 8.87 %); format: functional
B16 [32] = test: Induction of cell cycle arrest in mouse B16 cells assessed as accumulation at G0/G1 phase incubated for 24 hrs in presence of AG490 by PI staining based flow cytometry analysis (reference value: 56.59 %); format: functional
B16 [33] = test: Induction of apoptosis in mouse B16 cells assessed as early apoptotic cells preincubated for 2 hrs with […] followed by compound addition and measured after 24 hrs by Annexin-V-FITC/PI-staining based flow cytometry (reference value: 0.9 %); format: functional

COc1ccc2cc1Oc1ccc(cc1)C[C@H]1c3cc(c(OC)cc3CCN1C)Oc1c(OC)c(OC)c(OC)c3c1[C@H](C2)N(C)CC3 [HERNANDEZINE]
Activity (A-375 [1]): 76.28%
IC50 (NCI-H1299): 6.74 µM
Activity (A-375 [2]): 10.1%
IC50 (B16 [3]): 5.9 µM
Activity (B16 [4]): 2.98%
Activity (B16 [5]): 3.27%
Activity (B16 [6]): 72%
Activity (A-375 [7]): 23.9%
Activity (A-375 [8]): Active
Activity (A-375 [9]): Active
Activity (B16 [10]): 20.64%
Activity (A-375 [11]): 9.4%
Activity (B16 [12]): 19.2%
Activity (A-375 [13]): Active
Activity (A-375 [14]): Active
Activity (B16 [15]): 12.9%
Activity (A-375 [16]): Active
Activity (A-375 [17]): Active
Activity (B16 [18]): 4.6%
inhibition (B16 [19]): Active
Activity (B16 [20]): 23.84%
Activity (B16 [21]): 8.47%
Activity (B16 [22]): 14.1%
Activity (A-375 [23]): 70.87%
Activity (B16 [24]): Active
Activity (A-375 [25]): Active
Activity (B16 [26]): 72.89%
Activity (A-375 [27]): Active
Activity (A-375 [28]): Active
Activity (A-375 [29]): 53.4%
Activity (A-375 [30]): Active
Activity (A-375 [31]): 9.5%
Activity (B16 [32]): 84.61%
Activity (B16 [33]): 14.4%
